Measurements: patent US20050261319A1, “Novel 2-amino-4-quinazolinones and 2-amino-4-oxoquinazolones as LXR nuclear receptor binding compounds with partial agonistic properties” (priority 2002, published 2005)
Read-outs that look alike come from different tables or passages of the source.

How the values were obtained:
human LXRalpha LBD = molecular target: T1, human LXRalpha LBD (Homo sapiens, UniProt Q13133, A196R); assay: In vitro screening for LXR binding to coactivator Tif2 (LANCE TR-FRET); type: biochemical
T1 construct: from amino acids 155 of hLXRalpha to 447; made in house; host or cells: SF9 insect cells (baculovirus) for LXRalpha LBD; E. coli BL21 for Tif2 fragment
T1 sequence (Q13133 155-447 A196R): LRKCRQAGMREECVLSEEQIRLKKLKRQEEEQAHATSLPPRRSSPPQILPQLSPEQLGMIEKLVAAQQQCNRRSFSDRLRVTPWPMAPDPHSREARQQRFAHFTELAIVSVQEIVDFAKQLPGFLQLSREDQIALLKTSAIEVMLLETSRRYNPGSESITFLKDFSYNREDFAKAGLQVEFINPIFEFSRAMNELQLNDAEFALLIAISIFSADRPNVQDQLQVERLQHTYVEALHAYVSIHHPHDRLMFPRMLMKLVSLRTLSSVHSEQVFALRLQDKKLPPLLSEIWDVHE
T1 sequence (Q15596 548-878 partner limits assumed): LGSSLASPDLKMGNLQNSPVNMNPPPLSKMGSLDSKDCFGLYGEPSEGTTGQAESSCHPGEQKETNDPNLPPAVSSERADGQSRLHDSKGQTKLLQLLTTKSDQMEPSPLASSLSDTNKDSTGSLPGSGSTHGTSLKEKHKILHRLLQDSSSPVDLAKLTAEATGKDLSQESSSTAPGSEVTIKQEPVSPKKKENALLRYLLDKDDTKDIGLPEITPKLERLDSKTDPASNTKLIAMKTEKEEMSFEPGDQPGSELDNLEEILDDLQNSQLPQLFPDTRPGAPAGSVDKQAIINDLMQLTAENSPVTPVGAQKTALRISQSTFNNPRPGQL
From the text: For screening purposes a GST and 6× His fusion of the LBD (from amino acids 155 of hLXRalpha to 447) of human LXRalpha was constructed by first cloning a Gateway cassette (Invitrogen) in frame into the Sma I site of the pAGGHLT Polylinker (Pharmingen). Then a PCR fragment specifically amplified from human liver cDNA was cloned into the resulting pACGHLT-GW following the manufacturers instructions for Gateway cloning (Invitrogen) to yield pACGHLT-GW-hLXRalphaLBD.
100% sequence integrity of all recombinant products was verified by sequencing. Recombinant Baculovirus was constructed from pACGHLT-GW-hLXRalphaLBD using the Pharmingen Baculovirus Expression vector system according to instructions of the manufacturer. Monolayer cultures of SF9 cells were infected by the virus as recommended by Pharmingen or 200 ml cultures of 1×10^6 cells/ml grown in 2 liter Erlenmeyer flasks on an orbital shaker at 30 rpm were infected by 10 ml of same virus stock. In both cases cells were harvested 3 days after infection. All cell growth was performed in Gibco SF900 II with Glutamine (Invitrogen) medium without serum supplementation at 28° C. Since SF9 cells contain significant amounts of endogenous 30 GST, purification was performed via His and not via GST affinity chromatography.
To this end instructions of Pharmingen for purification of recombinant His tagged proteins from SF9 cells were followed with the following modifications: All detergents were omitted from the buffers and cells were lysed on ice by 5 subsequent sonication pulses using a sonicator needle at maximum power.
All eluates were dialyzed against 20 mM Tris/HCl pH 6.8, 300 mM KCl; 5 mM MgCl2;1 mM DTT; 0.2 mM PMSF; 10% Glycerol. A typical dialyzed eluate fraction contained the fusion protein at a purity of more than 80%. Total protein concentration was 0.1-0.3 mg/ml.
For E. coli expression of a NR coactivator, pDest17-hTif2BD expressing an NR interaction domain from amino acids 548-878 of human Tif2 (Acc. No: XM011633 Ref Seq) tagged by 6 N-terminal His residues was constructed. Therefore, a PCR fragment specifically amplified from human liver cDNA was subcloned into pDest 17 (Invitrogen) following the manufacturers instructions for Gateway cloning (Invitrogen). Primers used for Amplification were: […]
For E. coli expression plasmid DNA was transformed into chemically competent E. coli BL21 (Invitrogen, USA) and cells were grown to an OD600 of 0.4-0.7 before expression was induced by addition of 0.5 mM IPTG according instructions of the manufacturer (Invitrogen). After induction for 8 hours at 30° C. cells were harvested by centrifugation for 10 minutes at 5000×g. Fusion proteins were affinity purified using Ni—NTA Agarose (QIAGEN) according to the instructions of the manufacturer.
Recombinant Tif2 construct was dialyzed against 20 mM Tris/HCL pH 7.9; 60 mM KCl; 5 mM MgCl2; 1 mM DTT, 0.2 mM PMSF; 10% glycerol. A typical dialyzed eluate fraction contained the fusion protein at a purity of more than 80%. Total protein concentration was 0.1-0.3 mg/ml.
The TIF2 fragment was subsequently biotinylated by addition of 5-40 ul/ml Tif2 fraction of a Biotinamidocaproate N-Hydroxysuccinimide-ester (Sigma) solution (20 mg/ml in DMSO). Overhead rotating samples were incubated for 2 hours at room temperature. Unincorporated label was then separated using G25 Gel filtration chromatography (Pharmacia Biotech, Sweden). Protein containing fractions from the column were pooled and tested for activity in the assay as described below.
For screening of compound libraries as provided for by the methods shown below in the examples for substances which influence the LXR/Tif 2 interaction, the PerkinElmer LANCE technology is applied. This method relies on the binding dependent energy transfer from a donor to an acceptor fluorophore attached to the binding partners of interest. […]

[1] = system: ABCA1 and ABCG1 in THP-1 cells; assay: mRNA content of LXR target genes ABCA1 and ABCG1 in THP-1 cells (TaqMan); type: cell-based
Protocol: (§1) THP-1 (3×10^5 cells per dish) cells were seeded in […] RPMI-1640 medium (ATTC, Cat. No. 30-2001) containing 10% FCS (GIBCO) and 100 nM TPA and cultivated at 37° C. in 5% CO2 for 24 or 48 hours. HepG2 (4.5×10^5 cells per dish) were seeded in 24 well dishes in 3 ml DMEM Medium containing 10% FCS (GIBCO) and cultivated at 37° C. in 5% CO2 for 48 hours as indicated in FIG. 8B or until they are approx. 60% confluent.
(§2) The medium was then removed and replaced with medium containing 10% charcoal/stripped FCS (Hyclone) for 12 h.
(§3) LXR compounds are dissolved in DMSO, with the final solvent concentration never exceeding 0.125%. All treatments are done in triplicates and experiments repeated twice. Total RNA is extracted using the Qiagen Rneasy Mini Kit and treated with DNase (DNA free kit, Ambion). RNA is reverse transcribed with Oligo (dT) primer and real-time reverse transcription PCR (TaqMan) is performed using the ABI Prism 7900HT Sequence Detection System and reagents supplied by Applied Biosystems. mRNA steady state levels are normalised to H3 histone (H3F3A) expression levels.
(§4) The sequences of forward primers, reverse primers and TaqMan probes are as follows

[2] = system: FAS and SREBP-1c in HepG2 cells; assay: mRNA content of FAS and SREBP-1c in HepG2 cells (TaqMan); type: cell-based
Protocol: as §1, §2, §3, §4

Compound | EC50 (human LXRalpha LBD; FRET assay, read-out: EC50 at LXR (half-maximal effective concentration)) | selectivity of upregulation of ABCA1 and ABCG1 in THP-1 cells versus FAS and SREBP-1c in HepG2 cells [1] | selectivity of upregulation of ABCA1 and ABCG1 in THP-1 cells versus FAS and SREBP-1c in HepG2 cells ([1]; listed as TR1040001892) | upregulation of FAS [2] | upregulation of SREBP-1c [2] | active as agonist / partial agonist of the LXR human nuclear receptor (human LXRalpha LBD) | selectivity of upregulation of ABCA1 and ABCG1 in THP-1 cells versus FAS and SREBP-1c in HepG2 cells ([1]; listed as TR1040011382)
C=CCn1c(N2C3CC(C)(C)CC2(C)C3)nc2ccc(I)cc2c1=O (stereo not drawn) [formula (9)] | 2000 nM | selective upregulation | selective transcriptional effect | does not significantly upregulate | much reduced |  | 
CC(C)n1c(N2C3CC(C)(C)CC2(C)C3)nc2ccc(I)cc2c1=O (stereo not drawn) [formula (10)] |  | selective upregulation |  |  |  | active as partial agonist | selective transcriptional effect
CCCn1c(N2[C@@H]3CC(C)(C)C[C@@]2(C)C3)nc2cccc(F)c2c1=O [formula (11)] |  | reduced selectivity |  |  |  | active as partial agonist | 
C=CCn1c(N2[C@@H]3CC(C)(C)C[C@@]2(C)C3)nc2cccc(F)c2c1=O [formula (12)] |  | reduced selectivity |  |  |  | active as partial agonist | 
